Legend:
Format in all cases: cell-based
[1] = tested on: stress-inducible HVA1 promoter; experiment: HVA1-SGFP expression in maize leaf protoplasts treated with Ca2+ ionophores; settings: 1 mM Ca2+ alone or with 100 nM ionophore in incubation medium
Text: The role of Ca^2+ as a second messenger in multiple stress responses was also studied. The effects of increased intracellular Ca^2+ on HVA1-SGFP expression in maize leaf protoplasts using Ca^2+ ionophore was examined using standard methods as described below (Knight et al., Nature 352:524, 1991; Schroeder and Thuleau, Plant Cell 3:555, 1991; Braam, Proc. Natl. Acad. Sci. U.S.A. 89:3213, 1992; McAinsh et al., Plant Cell 4:1113, 1992; Assmann, Ann. Rev. Cell Biol. 9:345, 1993; Poovaiah and Reddy, Crit. Rev. Plant Sci. 12:185, 1993; Trewavas and Knight, Plant Mol. Biol. 26:1329, 1994; Ward and Schroeder, Plant Cell 6:669, 1994; Bethke et al., in Plant Hormones, Davies, Ed., (Kluwer Academic 1995) pp. 298–317; Bush, Ann. Rev. Plant Physiol. Plant Mol. Biol. 46:95, 1995; Monroy and Dhindsa, Plant Cell 7:32, 1995; and Knight et al., Plant Cell 8:489, 1996).
Maize leaf protoplasts transfected with HVA1-SGFP (HVA) or UBI-SGFP (UBI) were treated with 1 mM Ca^2+, 1 mM Ca^2+/100 nM A23187, and 1 mM Ca^2+/100 nM ionomycin, respectively designated “C,” “A,” and “I” in FIG. 2. UBI-SGFP was constructed by inserting the UBI promoter from pAHC27 (Christensen et al., Plant Mol. Biol. 18:675, 1992) into the SGFP vector (Chiu et al., Curr. Biol. 6:225, 1996). […] About 10^5 protoplasts from each treatment were observed using a fluorescence microscope (Chiu et al., Curr. Biol. 6:225, 1996). […]

[2] = tested on: stress-inducible HVA1 promoter; experiment: HVA1-SGFP reporter expression in maize leaf protoplasts under stress/ABA treatment
Text: Responses to multiple stress treatments were monitored using green-fluorescent protein (GFP) as a vital reporter (Chiu et al. Curr. Biol. 6:225, 1996), using a single cell maize leaf protoplast system (Sheen, EMBO J 12:3497, 1993). A chimeric gene was generated by fusing the stress-inducible CDPK HVA1 promoter (Straub et al., Plant Mol. Biol. 26:617, 1994) to a synthetic GFP sequence (HVA1-SGFP) (Chiu et al. Curr. Biol. 6:225, 1996). The barley HVA1 promoter was obtained by PCR using barley genomic DNA and two primers: 5′[…]-3′ (SEQ ID NO: 17) and 5′-[…]-3′ (SEQ ID NO: 18). The HVA1 promoter and the SGFP were fused at the ATG NcoI site. The CDPK HVA1 gene has been reported to be activated by multiple stress signals in vegetative tissues (Straub et al., Plant Mol. Biol. 26:617, 1994). […]
Maize leaf protoplasts were electroporated with the plasmid DNA carrying HVA1-SGFP and divided (10^5 cells/ml per sample) for various treatments: constant light (15 μEm^−2S^−1) at 23° C. for sixteen hours (Control), 0° C. for four hours followed by twelve hours at 23° C. […] About 10^5 protoplasts from each treatment were observed using a fluorescence microscope as described by Chiu et al. (Curr. Biol. 6:225, 1996). […] About 50% of the protoplasts, showing green/yellow fluorescence after the induction, were transiently transformed. […]

HVA1 promoter [3] = experiment: HVA1-LUC expression with constitutively active or null PP2C effector in maize leaf protoplasts; settings: ABA treatment
Text: To further support the idea that ATCDPK1 and ATCDPK1a are positive regulators in plant stress signal transduction, the effect of a specific and constitutively active Arabidopsis protein phosphatase 2C (PP2C) capable of abolishing ABA responses (Leung et al., Science 264:1448, 1994; Meyer et al., Science 264:1452, 1994; Armstrong et al., Proc. Natl. Acad. Sci. USA 92:9520, 1995) was examined as follows. Maize leaf protoplasts were electroporated with HVA1-LUC alone or with the effectors as indicated. […] The experiments with the constitutively active PP2C or the null PP2C were performed with two concentrations of plasmid DNA (+, 20 μg and ++, 60 μg) (FIG. 4C). LUC and GUS assays were performed with 2% of the cell lysates as described previously by Sheen (EMBO J. 12:3497, 1993; Jefferson, Plant Mol. Biol. Rep. 5:387, 1987; and Luehrsen et al., Meth. Enz. 216:397, 1992). Relative LUC activities from duplicated samples are shown. The experiment was repeated three times with similar results (FIG. 4C).

HVA1 promoter [4] = experiment: HVA1-LUC reporter co-expression with constitutive PK constructs in maize leaf protoplasts; settings: co-electroporated constitutive (truncated) PK construct, without ABA
Procedure: For quantitating the effect of various constitutive PKs on stress signaling, another chimeric gene with the HVA1 promoter and the luciferase coding sequence (Leuhrsen et al., Meth. Enz. 216:397, 1992) (HVA1-LUC) was generated. Co-expression experiments were performed by electroporating the reporter (HVA1-LUC) and the effector (35SC4PSK-PK-HA) plasmids together into maize leaf protoplasts as follows.
Maize leaf protoplasts were transfected with HVA1-LUC alone and incubated without (FIG. 3E, “C”) or with 100 μM ABA (FIG. 3E, “A”). HVA1-LUC was also co-electroporated with the PK constructs (1–8) shown in FIG. 3C and FIG. 3D, and incubated without ABA (FIG. 3E, “1–8”). Relative LUC activities from duplicated samples are shown. About 2% of the cell lysates were used for LUC (Luehrsen et al., Meth. Enz. 216:397, 1992) and GUS assays (Sheen, EMBO J. 12:3497, 1993; and Jefferson, Plant Mol. Biol. Rep. 5:387, 1987). The experiment was repeated three times with similar results.

Molecule: CNc1ccc2oc(C[C@H]3O[C@@]4(CC[C@H]3C)O[C@H]([C@H](C)C(=O)c3ccc[nH]3)[C@H](C)C[C@H]4C)nc2c1C(=O)O [A23187]
- expression of HVA1-GFP [1]: significantly increased

Molecule: CC1=CC(=O)CC(C)(C)[C@@]1(O)/C=C/C(C)=C\C(=O)O [ABA, abscisic acid]
- GFP expression from HVA1-SGFP ([2]; 1 μM ABA (data not shown)): visible
- expression of GFP from HVA1-SGFP ([2]; 100 μM ABA for sixteen hours, fluorescence microscopy): enhanced
- HVA1-LUC expression (HVA1 promoter [3]): activated

Molecule: C[C@H](CCC(=O)O)C[C@H](C)C[C@H](C)C(=O)/C=C(\O)[C@H](C)C[C@H](C)C/C=C/[C@@H](C)[C@@H](O)[C@@H](C)[C@@H](O)C[C@@H]1CC[C@@](C)([C@H]2CC[C@@](C)([C@@H](C)O)O2)O1 [ionomycin]
- expression of HVA1-GFP [1]: significantly increased

B1: ATCDPK1a: truncated constitutively active Arabidopsis CDPK PK domain, SEQ ID NO: 2 (protein, listed as Arabidopsis thaliana)
chain: MANQTQISDKYILGRELGRGEFGITYLCTDRETREALACKSISKRKLRTAVDVEDVRREVTIMSTLPEHPNVVKLKATYEDNETVHLVMELCEGGELFGRIVARGHYTERAAATVARTIAEVVRMCHVNGVMHRDLKPENFLFANKKENSALKAIDFGLSVLFKPGERFTEIVGSPYYMAPEVLKRNYGPEVDVWSAGVILYILLCGVPPFWAETEQGVALAILRGVLDFKRDPWSQISESAKSLVKQMLEPDSTKRLTAQQVLDHPWIQNAKK
- LUC expression controlled by the HVA1 promoter (HVA1 promoter [4]): specifically activate
